Reference: patent US8658591B2, “Multi-LEU peptides and analogues thereof as selective PACE4 inhibitors and effective antiproliferative agents” (priority 2008, dated 2014)

What was measured:
Type in all cases: biochemical
PACE4 = target: T1, PACE4 (Homo sapiens, UniProt P29122); assay: Enzyme inhibition assay, fluorogenic substrate, PACE4
T1 sequence (P29122 150-969): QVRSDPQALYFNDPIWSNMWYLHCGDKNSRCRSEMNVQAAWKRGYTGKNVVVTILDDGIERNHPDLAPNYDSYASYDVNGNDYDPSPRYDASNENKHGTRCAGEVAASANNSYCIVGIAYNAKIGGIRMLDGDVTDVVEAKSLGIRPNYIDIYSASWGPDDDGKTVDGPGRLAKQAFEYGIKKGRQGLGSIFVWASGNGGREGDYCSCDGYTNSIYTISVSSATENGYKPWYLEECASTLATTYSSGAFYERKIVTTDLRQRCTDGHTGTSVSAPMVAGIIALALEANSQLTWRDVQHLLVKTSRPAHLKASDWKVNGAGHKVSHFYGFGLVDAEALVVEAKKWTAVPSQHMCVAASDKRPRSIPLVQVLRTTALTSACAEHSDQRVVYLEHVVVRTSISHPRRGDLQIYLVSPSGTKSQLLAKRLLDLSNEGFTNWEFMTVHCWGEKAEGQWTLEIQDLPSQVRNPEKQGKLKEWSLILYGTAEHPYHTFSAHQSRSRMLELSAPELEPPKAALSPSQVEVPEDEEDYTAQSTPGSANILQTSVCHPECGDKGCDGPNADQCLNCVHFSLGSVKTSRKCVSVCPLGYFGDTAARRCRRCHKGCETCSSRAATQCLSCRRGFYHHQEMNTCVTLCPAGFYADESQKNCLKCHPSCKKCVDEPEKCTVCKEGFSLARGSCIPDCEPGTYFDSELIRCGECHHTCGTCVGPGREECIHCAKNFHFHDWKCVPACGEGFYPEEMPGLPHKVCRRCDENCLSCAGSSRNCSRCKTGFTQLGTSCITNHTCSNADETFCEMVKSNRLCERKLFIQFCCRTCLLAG
From the text: Those skilled in the art can easily determine PACE4 activity using routine experimentation. For example, the activity assay of PACE4 can be carried out in 96 well plates, and includes the use of a fluorogenic substrate, namely PyrRTKR-AMC (SEQ ID NO: 30) (AMC is amino-methyl-coumarin). The substrate and the purified enzyme are placed in the wells, and depending on the units of enzyme present, the AMC moiety will be cleaved at a certain rate, such a pmoles/sec. The resultant free AMC is now fluorescent and can be detected with a spectrofluorometer. The addition of inhibitors to the assay will yield progress curves that have lesser slopes. Based on these changes the inhibitory constants (Ki) is calculated (Fugere et al., 2002, J. Biol. Chem., 277:7648-56).
(§1) Enzyme inhibition assays for furin (FIG. 5D) were performed in 100 mM Hepes pH 7.5, 1 mM CaCl2, 1 mM β-mercaptoethanol, 0.5 μg/μL BSA. Assays for PC2 (FIG. 5E) were performed in 20 mM Bis-Tris pH 5,7, 1 mM CaCl2, 0.1% Brij-30. Assays for PC1/3, PC4, PACE4, PC5/6 and PC7 (FIGS. 5F, G, A, B and C respectively) were performed in 20 mM Bis-Tis pH 6.5, 1 mM CaCl2. All assays were performed with the substrate pyroGlu-Arg-[…]-Lys-Arg-methyl-coumaryl-7-amide (SEQ ID NO: 33) (PyrRTKR-MCA (SEQ ID NO: 34)) (Bachem, CA) at 100 μM for furin, PC1/3, PC4, PACE4 and PC5/6, 200 μM for PC2 and 250 μM for PC7. Assays were carried out at 37° C. for 30-60 min and real-time fluorescence was measured with an excitation wavelength of 370 nm and an emission wavelength of 460 nm using a Gemini XS™ 96-well spectrofluorometer and SoftMaxPro4™ software (Molecular Devices, CA). Inhibitory peptides were added to the enzymes at decreasing concentrations from 100 μM to 50 nM and incubated 5 minutes prior to the addition of substrate.

PC5/6 = PC5/6 (Homo sapiens, UniProt Q92824); assay: Enzyme inhibition assay, fluorogenic substrate, PC5/6
Description: as §1

furin = furin (Homo sapiens, UniProt P09958); assay: Enzyme inhibition assay, fluorogenic substrate, furin
Description: as §1

PC4 = target: T2, PC4 (Homo sapiens, UniProt Q6UW60); assay: Enzyme inhibition assay, fluorogenic substrate, PC4
T2 sequence (Q6UW60 114-755): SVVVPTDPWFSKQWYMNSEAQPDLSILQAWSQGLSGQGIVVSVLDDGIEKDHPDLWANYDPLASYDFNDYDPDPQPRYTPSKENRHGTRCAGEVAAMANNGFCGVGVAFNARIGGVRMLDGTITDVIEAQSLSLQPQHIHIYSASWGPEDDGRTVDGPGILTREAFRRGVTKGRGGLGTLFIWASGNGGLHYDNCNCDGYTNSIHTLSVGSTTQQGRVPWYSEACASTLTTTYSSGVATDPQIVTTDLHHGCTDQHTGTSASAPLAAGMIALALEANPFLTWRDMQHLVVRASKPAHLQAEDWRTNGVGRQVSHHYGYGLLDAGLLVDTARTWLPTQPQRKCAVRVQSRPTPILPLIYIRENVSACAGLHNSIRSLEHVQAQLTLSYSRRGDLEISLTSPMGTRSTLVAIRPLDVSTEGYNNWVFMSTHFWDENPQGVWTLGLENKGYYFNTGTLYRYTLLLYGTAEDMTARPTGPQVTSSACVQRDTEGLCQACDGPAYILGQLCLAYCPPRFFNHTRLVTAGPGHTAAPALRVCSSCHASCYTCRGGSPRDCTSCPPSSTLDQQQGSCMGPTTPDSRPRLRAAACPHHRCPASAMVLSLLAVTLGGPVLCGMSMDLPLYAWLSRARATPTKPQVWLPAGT
Description: as §1

PC5/6, sequence (Q92824 115-1860): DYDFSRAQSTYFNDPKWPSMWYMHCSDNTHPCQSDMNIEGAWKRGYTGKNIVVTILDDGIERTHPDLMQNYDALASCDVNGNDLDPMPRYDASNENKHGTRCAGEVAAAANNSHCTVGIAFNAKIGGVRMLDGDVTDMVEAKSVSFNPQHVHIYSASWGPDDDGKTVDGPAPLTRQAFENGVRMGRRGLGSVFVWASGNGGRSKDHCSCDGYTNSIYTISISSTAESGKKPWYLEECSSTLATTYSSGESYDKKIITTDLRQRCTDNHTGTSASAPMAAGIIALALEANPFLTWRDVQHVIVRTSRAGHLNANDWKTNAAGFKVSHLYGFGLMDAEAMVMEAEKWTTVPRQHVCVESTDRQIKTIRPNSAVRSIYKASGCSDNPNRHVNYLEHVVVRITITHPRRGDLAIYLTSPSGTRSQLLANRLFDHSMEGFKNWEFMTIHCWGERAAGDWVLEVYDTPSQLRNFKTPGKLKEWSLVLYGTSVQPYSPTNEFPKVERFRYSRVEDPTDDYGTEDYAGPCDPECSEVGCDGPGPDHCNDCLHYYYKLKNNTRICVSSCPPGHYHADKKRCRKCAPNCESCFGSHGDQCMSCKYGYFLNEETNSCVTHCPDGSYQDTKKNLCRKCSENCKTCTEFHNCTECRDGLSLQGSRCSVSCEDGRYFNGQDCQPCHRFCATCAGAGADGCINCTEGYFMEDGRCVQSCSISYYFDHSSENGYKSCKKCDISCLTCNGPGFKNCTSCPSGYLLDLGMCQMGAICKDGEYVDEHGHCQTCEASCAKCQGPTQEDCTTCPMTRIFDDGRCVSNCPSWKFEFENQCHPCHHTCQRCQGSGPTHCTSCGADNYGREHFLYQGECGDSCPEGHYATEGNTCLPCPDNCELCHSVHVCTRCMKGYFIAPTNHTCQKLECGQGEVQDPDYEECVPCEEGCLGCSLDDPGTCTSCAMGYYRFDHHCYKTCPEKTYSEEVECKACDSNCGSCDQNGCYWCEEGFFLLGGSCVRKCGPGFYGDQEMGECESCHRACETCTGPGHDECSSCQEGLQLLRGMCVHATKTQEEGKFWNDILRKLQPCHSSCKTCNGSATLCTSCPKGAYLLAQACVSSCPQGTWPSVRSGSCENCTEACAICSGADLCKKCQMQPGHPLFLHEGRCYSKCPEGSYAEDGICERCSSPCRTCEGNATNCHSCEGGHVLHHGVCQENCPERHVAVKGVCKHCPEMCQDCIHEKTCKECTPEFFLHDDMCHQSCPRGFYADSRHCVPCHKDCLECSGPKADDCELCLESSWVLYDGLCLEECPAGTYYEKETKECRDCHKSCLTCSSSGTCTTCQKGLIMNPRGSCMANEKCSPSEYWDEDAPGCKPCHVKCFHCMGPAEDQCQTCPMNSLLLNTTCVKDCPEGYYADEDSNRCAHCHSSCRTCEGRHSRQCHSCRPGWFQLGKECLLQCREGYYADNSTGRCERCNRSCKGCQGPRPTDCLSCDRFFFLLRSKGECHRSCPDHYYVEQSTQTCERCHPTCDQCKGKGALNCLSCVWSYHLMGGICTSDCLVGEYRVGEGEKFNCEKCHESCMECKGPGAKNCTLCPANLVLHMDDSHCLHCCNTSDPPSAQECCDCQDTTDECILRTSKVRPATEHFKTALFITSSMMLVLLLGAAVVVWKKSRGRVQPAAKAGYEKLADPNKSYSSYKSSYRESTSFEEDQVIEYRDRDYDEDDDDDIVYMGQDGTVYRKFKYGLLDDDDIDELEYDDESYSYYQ
furin, sequence (P09958 108-794, species assumed): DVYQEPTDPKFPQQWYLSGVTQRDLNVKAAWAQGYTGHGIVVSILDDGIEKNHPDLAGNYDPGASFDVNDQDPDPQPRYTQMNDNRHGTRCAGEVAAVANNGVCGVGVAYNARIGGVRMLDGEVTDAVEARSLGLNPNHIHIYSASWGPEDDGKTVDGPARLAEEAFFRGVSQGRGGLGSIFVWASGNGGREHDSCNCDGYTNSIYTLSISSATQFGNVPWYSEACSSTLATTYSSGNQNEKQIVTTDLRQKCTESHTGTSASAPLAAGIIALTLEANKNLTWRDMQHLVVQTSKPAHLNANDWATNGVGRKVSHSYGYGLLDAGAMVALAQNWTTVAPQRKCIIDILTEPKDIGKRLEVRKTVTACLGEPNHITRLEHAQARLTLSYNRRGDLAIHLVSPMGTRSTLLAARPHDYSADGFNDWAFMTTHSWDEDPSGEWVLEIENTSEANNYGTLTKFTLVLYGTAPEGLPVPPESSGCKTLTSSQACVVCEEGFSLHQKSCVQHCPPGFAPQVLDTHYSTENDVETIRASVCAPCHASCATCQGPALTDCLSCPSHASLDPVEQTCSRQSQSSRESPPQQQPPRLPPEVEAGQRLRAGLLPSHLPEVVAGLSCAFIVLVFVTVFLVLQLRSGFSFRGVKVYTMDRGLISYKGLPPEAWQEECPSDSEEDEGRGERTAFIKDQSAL

inhibition potency on PACE4, in words (PACE4): poor micromolar inhibitor
inhibition potency on PC5/6, in words (PC5/6): poor micromolar inhibitor
inhibition potency on furin, in words (furin): poor micromolar inhibitor
inhibition potency on PC4, in words (PC4): poor micromolar inhibitor
Substance: RVKR [RVKR—NH2, RVKR-NH2]
